# Earlier results, collected in US12611380B2, “Solution and method for reducing the virulence of viruses, bacteria, yeasts, or fungus” (priority 2020, dated 2026).
# Test system: methacillin resistant Staphylococcus aureus, vancomycin resistant enterococcus, pseudomonas, aspergillus, Candida albicans, Helicobacter pylori
# Conditions: studies by a third party; cited from earlier work
substance,measurement,value
potassium salt of isomerized linoleic acid [ILCS],growth of pathogens,suppresses the growth
